{"source": "paper PMC11747885", "about": "“Potent inhibitors of the human RNA ligase Rlig1 highlights its role in RNA integrity maintenance under oxidative cellular stress” (Chemical Science, 2025)", "key": {"HEK293 cells": {"system": "HEK293 cells", "experiment": "Cell viability assay of HEK293 cells treated with inhibitors and menadione", "format": "cell-based, human"}, "[1]": {"experiment": "Cell viability assay of HEK293 cells treated with inhibitors and menadione", "format": "cell-based, human", "details": "human, HEK293 cells, w/o Menadione; for viability at 7.5 µM: 7.5 µM compound; for viability at 15 µM: 15 µM compound; for viability at 30 µM: 30 µM compound; for viability at 60 µM: 60 µM compound"}, "[2]": {"molecular_target": "T1, human DNA ligase 1 (hLig1) (Homo sapiens, UniProt P18858)", "T1 construct": "made in house; host or cells: E. coli Rosetta BL21 (DE3), pET28a-hLig1", "T1 sequence (P18858 whole entry)": "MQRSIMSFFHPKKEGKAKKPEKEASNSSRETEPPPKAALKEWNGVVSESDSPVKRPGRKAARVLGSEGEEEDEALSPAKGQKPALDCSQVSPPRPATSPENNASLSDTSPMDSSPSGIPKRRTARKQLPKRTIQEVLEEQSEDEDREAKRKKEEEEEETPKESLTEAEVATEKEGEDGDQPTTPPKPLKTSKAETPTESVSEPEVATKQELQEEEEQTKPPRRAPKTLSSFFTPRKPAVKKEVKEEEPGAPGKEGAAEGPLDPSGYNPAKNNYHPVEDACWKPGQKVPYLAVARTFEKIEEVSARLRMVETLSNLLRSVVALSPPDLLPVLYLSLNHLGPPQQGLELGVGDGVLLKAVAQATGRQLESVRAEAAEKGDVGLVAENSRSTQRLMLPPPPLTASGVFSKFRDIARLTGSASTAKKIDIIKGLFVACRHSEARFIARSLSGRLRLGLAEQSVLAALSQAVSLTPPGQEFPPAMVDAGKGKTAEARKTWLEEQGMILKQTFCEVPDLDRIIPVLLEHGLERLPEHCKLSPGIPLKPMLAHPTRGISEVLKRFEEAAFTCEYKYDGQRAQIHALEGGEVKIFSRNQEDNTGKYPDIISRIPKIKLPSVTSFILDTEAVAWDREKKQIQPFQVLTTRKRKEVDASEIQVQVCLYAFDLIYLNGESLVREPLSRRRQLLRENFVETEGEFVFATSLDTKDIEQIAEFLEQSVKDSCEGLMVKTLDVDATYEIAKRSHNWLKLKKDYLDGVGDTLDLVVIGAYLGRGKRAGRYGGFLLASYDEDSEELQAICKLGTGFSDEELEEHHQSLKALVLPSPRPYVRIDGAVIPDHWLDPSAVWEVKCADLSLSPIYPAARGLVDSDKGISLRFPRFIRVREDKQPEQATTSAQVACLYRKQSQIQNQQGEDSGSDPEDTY", "experiment": "DNA ligation assay with various hLig1 concentration at constant inhibitor concentration", "format": "biochemical", "details": "10 μM compound, hLig1 titrated (500 nM to 31.3 nM), 30 min 37 °C"}, "in vitro": {"experiment": "in vitro", "details": "human"}, "[3]": {"molecular_target": "T1, human DNA ligase 1 (hLig1)", "experiment": "DNA ligation assay with hLig1 and 47 (compound titration)", "format": "biochemical", "details": "for Product formation [%] of DNA ligation, hlig1: three replicates"}, "[4]": {"details": "20240508 plate 012, DMSO Ko no Mendione = 100"}, "[5]": {"details": "20240508 plate 013, DMSO Ko no Mendione = 100"}, "[6]": {"details": "20240515 plate 014, DMSO Ko no Mendione = 100"}, "[7]": {"details": "20240515 plate 015, DMSO Ko no Mendione = 100"}, "[8]": {"details": "Figure 5B, Sigmoidal, 4PL, fit Interrupted"}}, "note": "Several values for one entry are separate records, joined by “and”; a condition that tells them apart may be missing. Equal entries are not always repeated. Marks after values point to notes of the source that are not given here."}
{"smiles": "Nc1nccc(Nc2ccc(NC(=O)c3ccc(Nc4ncnc5ccccc45)cc3)cc2)n1", "note": "[Compound 47]", "values": [{"measurement": "Cell viability raw signal, technical replicates", "setting": "HEK293 cells; 30 µM compound, w Menadione (40µM), 20240515 plate 015", "result": "19537 and 20556 and 18511 and 24331"}, {"measurement": "Cell viability raw signal, technical replicates", "setting": "HEK293 cells; 30 µM compound, w/o Menadione, 20240508 plate 012", "result": "338540 and 348450 and 357680 and 361520"}, {"measurement": "Mean Diff, (Predicted (LS) mean diff,) w/o menadione - w menadione", "setting": "HEK293 cells; 60 µM compound, 2 way ANOVA, Šídák's multiple comparisons test, normalised viability", "result": 29.66}, {"measurement": "Cell viability raw signal, technical replicates", "setting": "HEK293 cells; 60 µM compound, w Menadione (40µM), 20240508 plate 012", "result": "68212* and 77972* and 10202 and 14953"}, {"measurement": "Cell viability raw signal, technical replicates", "setting": "HEK293 cells; 60 µM compound, w Menadione (40µM), 20240508 plate 013", "result": "97500* and 94661* and 7245 and 13149"}, {"measurement": "Cell viability raw signal, technical replicates", "setting": "HEK293 cells; 60 µM compound, w Menadione (40µM), 20240515 plate 014", "result": "23954 and 23288 and 10147 and 14983"}, {"measurement": "Cell viability raw signal, technical replicates", "setting": "HEK293 cells; 60 µM compound, w Menadione (40µM), 20240515 plate 015", "result": "24869 and 20588 and 9258 and 15604"}, {"measurement": "Cell viability raw signal, technical replicates", "setting": "HEK293 cells; 60 µM compound, w/o Menadione, 20240508 plate 012", "result": "309000 and 323530 and 287920 and 324080"}, {"measurement": "Cell viability raw signal, technical replicates", "setting": "HEK293 cells; 60 µM compound, w/o Menadione, 20240508 plate 013", "result": "294060 and 325150 and 301550 and 314910"}, {"measurement": "Cell viability raw signal, technical replicates", "setting": "HEK293 cells; 60 µM compound, w/o Menadione, 20240515 plate 014", "result": "295270 and 285610 and 291450 and 291110"}, {"measurement": "Cell viability raw signal, technical replicates", "setting": "HEK293 cells; 60 µM compound, w/o Menadione, 20240515 plate 015", "result": "292640 and 290230 and 291370 and 285220"}, {"measurement": "cell viability under oxidative stress (in words)", "setting": "HEK293 cells; inhibitor 24 h, then 40 μM menadione 5 h", "result": "significantly reduced viability only when the cells were stressed"}, {"measurement": "viability at 7.5 µM", "setting": "[1]; [4]", "result": 101, "unit": "%"}, {"measurement": "viability at 7.5 µM", "setting": "[1]; [5]", "result": 97.7, "unit": "%"}, {"measurement": "viability at 7.5 µM", "setting": "[1]; [6]", "result": 86.8, "unit": "%"}, {"measurement": "viability at 7.5 µM", "setting": "[1]; [7]", "result": 90.7, "unit": "%"}, {"measurement": "viability at 15 µM", "setting": "[1]; [4]", "result": 99.1, "unit": "%"}, {"measurement": "viability at 15 µM", "setting": "[1]; [5]", "result": 99.5, "unit": "%"}, {"measurement": "viability at 15 µM", "setting": "[1]; [6]", "result": 88.1, "unit": "%"}, {"measurement": "viability at 15 µM", "setting": "[1]; [7]", "result": 86.8, "unit": "%"}, {"measurement": "viability at 30 µM", "setting": "[1]; [4]", "result": 83.9, "unit": "%"}, {"measurement": "viability at 30 µM", "setting": "[1]; [5]", "result": 85.9, "unit": "%"}, {"measurement": "viability at 30 µM", "setting": "[1]; [6]", "result": 80.3, "unit": "%"}, {"measurement": "viability at 30 µM", "setting": "[1]; [7]", "result": 77.7, "unit": "%"}, {"measurement": "viability at 60 µM", "setting": "[1]; [4]", "result": 74.2, "unit": "%"}, {"measurement": "viability at 60 µM", "setting": "[1]; [5]", "result": 78.2, "unit": "%"}, {"measurement": "viability at 60 µM", "setting": "[1]; [6]", "result": 71.3, "unit": "%"}, {"measurement": "viability at 60 µM", "setting": "[1]; [7]", "result": 70.9, "unit": "%"}, {"measurement": "effect on hLig1 activity (in words)", "setting": "[2]", "result": "least impact on hLig1 activity"}, {"measurement": "viability at 24 h, 0.234375 µM", "setting": "in vitro", "result": 109, "unit": "%"}, {"measurement": "viability at 24 h, 0.46875 µM", "setting": "in vitro", "result": 101, "unit": "%"}, {"measurement": "viability at 24 h, 0.9375 µM", "setting": "in vitro", "result": 102, "unit": "%"}, {"measurement": "viability at 24 h, 1.875 µM", "setting": "in vitro", "result": 102, "unit": "%"}, {"measurement": "viability at 24 h, 3.75 µM", "setting": "in vitro", "result": 97.2, "unit": "%"}, {"measurement": "viability at 24 h, 7.5 µM", "setting": "in vitro", "result": 97.9, "unit": "%"}, {"measurement": "viability at 24 h, 15 µM", "setting": "in vitro", "result": 93, "unit": "%"}, {"measurement": "viability at 24 h, 30 µM", "setting": "in vitro", "result": 86, "unit": "%"}, {"measurement": "effect on DNA ligase activity (in words)", "setting": "[3]; 1:2 dilution series starting from 30 μM compound, 500 nM hLig1, 20 min 37 °C", "result": "No effect"}, {"measurement": "Bottom (best-fit value), hlig1", "setting": "[3]; [8]", "result": -4.954}, {"measurement": "HillSlope (best-fit value), hlig1", "setting": "[3]; [8]", "result": -3.033}, {"measurement": "Span (best-fit value), hlig1", "setting": "[3]; [8]", "result": 97.9}, {"measurement": "Top (best-fit value), hlig1", "setting": "[3]; [8]", "result": 92.94}, {"measurement": "LogIC50 (best-fit value), hlig1", "setting": "[3]; Figure 5B, Sigmoidal, 4PL, fit Interrupted, log of µM", "result": 1.72}, {"measurement": "Product formation [%] of DNA ligation, hlig1", "setting": "[3]; log (47 [µM]) 0.273001", "result": "-3.458% and -4.463% and -2.953%"}, {"measurement": "Product formation [%] of DNA ligation, hlig1", "setting": "[3]; log (47 [µM]) 0.574031", "result": "-2.567% and -4.108% and -2.802%"}, {"measurement": "Product formation [%] of DNA ligation, hlig1", "setting": "[3]; log (47 [µM]) 0.875061", "result": "-2.276% and -3.138% and -3.06%"}, {"measurement": "Product formation [%] of DNA ligation, hlig1", "setting": "[3]; log (47 [µM]) 1.17609", "result": "0.5458% and -2.902% and -1.203%"}, {"measurement": "Product formation [%] of DNA ligation, hlig1", "setting": "[3]; log (47 [µM]) 1.47712", "result": "11.4249% and 9.911% and 18.8699%"}, {"measurement": "Product formation [%] of DNA ligation, hlig1", "setting": "[3]; log (47 [µM]) -0.0280287", "result": "-3.67% and -4.363% and -3.165%"}, {"measurement": "Product formation [%] of DNA ligation, hlig1", "setting": "[3]; log (47 [µM]) -0.329059", "result": "-3.453% and -3.785% and -3.456%"}, {"measurement": "Product formation [%] of DNA ligation, hlig1", "setting": "[3]; log (47 [µM]) -0.630089", "result": "-3.095% and -4.479% and -2.914%"}]}
